# Patent US10786484B2, “Mono- or di-substituted indole derivatives as dengue viral replication inhibitors” (Janssen Pharmaceuticals, Inc., priority 2015, dated 2020)
# Legend:
# in vitro [1] = type: cell-based; settings: African green monkey, CC50
# Description: (§1) The antiviral activity of the compounds of the invention was tested against DENV-1 strain TC974#666 (NCPV), DENV-2 strain 16681, DENV-3 strain H87 (NCPV) and DENV-4 strains H241 (NCPV) and EDEN (SG/06K2270DK1/2005; GenBank accession number QG398256) in a RT-qPCR assay. Therefore, Vero cells were infected with either DENV-1, or -2, or -3, or -4 in the presence or absence of test compounds. At day 3 post-infection, the cells were lysed and cell lysates were used to prepare cDNA of both a viral target (the 3′UTR of DENV; Table 2) and a cellular reference gene (β-actin, Table 2). Subsequently, a duplex real time PCR was performed on a Lightcycler480 instrument. The generated Cp value is inversely proportional to the amount of RNA expression of these targets. Inhibition of DENV replication by a test compound results in a shift of Cp's for the 3′UTR gene. On the other hand, if a test compound is toxic to the cells, a similar effect on β-actin expression will be observed. The comparative ΔΔCp method is used to calculate EC50, which is based on the relative gene expression of the target gene (3′UTR) normalized with the cellular housekeeping gene (β-actin). In addition, CC50 values are determined based on the Cp values acquired for the housekeeping gene β-actin.
# (§2) The culture medium consisted of minimal essential medium supplemented with 2% of heat-inactivated fetal calf serum, 0.04% gentamycin (50 mg/mL) and 2 mM of L-glutamine. Vero cells, obtained from ECACC, were suspended in culture medium and 75 μL/well was added in 96-well plates (10000 cells/well), which already contain the antiviral compounds. […] In addition, each plate contains wells which are assigned as virus controls (containing cells and virus in the absence of compound) and cell controls (containing cells in the absence of virus and compound). Once the cells were added in the plates, the plates were incubated in a fully humidified incubator (37° C., 5% CO2) until the next day. Dengue viruses serotype-1, 2, 3 and 4 were diluted in order to obtain a Cp of ˜22-24 in the assay. Therefore, 25 μL of virus suspension, was added to all the wells containing test compound and to the wells assigned as virus control. In parallel, 25 μL of culture medium was added to the cell controls. Next, the plates were incubated for 3 days in a fully humidified incubator (37° C., 5% CO2). After 3 days, the supernatant was removed from the wells and the cells were washed twice with ice-cold PBS (−100 μL). The cell pellets within the 96-well plates were stored at −80° C. for at least 1 day. Next, RNA was extracted using the Cells-to-CT™ lysis kit, according to the manufacturer's guideline (Life Technologies). The cell lysates can be stored at −80° C. or immediately used in the reverse transcription step.
# (§3) Using the LightCycler software and an in-house LIMS system, dose response curves for each compound were calculated and the half maximal effective concentration (EC50) and the half maximal cytotoxic concentration (CC50) were determined (Tables 5-8).
# DENV-1 strain TC974#666 = assay: Tetravalent RT-qPCR assay Protocol A, serotype 1; type: cell-based; settings: Dengue virus, DENV1, 72 h; RT-qPCR serotype 1 TC974#666, Vero cells, day 3
# Description: as §1, §2
# (§4) In preparation of the reverse transcription step, mix A (table 3A) was prepared and 7.57 μL/well was dispensed in a 96-well plate. After addition of 5 μL of the cell lysates, a five minute denaturation step at 75° C. was performed (table 3B). Afterwards, 7.43 μL of mix B was added (table 3C) and the reverse transcription step was initiated (table 3D) to generate cDNA.
# (§5) Finally, a RT-qPCR mix was prepared, mix C (table 4A), and 22.02 μL/well was dispensed in 96-well LightCycler qPCR plates to which 3 μL of cDNA was added and the qPCR was performed according to the conditions in table 4B on a LightCycler 480.
# as §3
# DENV-3 strain H87 = assay: Tetravalent RT-qPCR assay Protocol A, serotype 3; type: cell-based; settings: Dengue virus, DENV3, 72 h; RT-qPCR serotype 3 H87, Vero cells, day 3
# Description: as §1, §2, §4, §5, §3
# Vero cells = settings: African green monkey
# DENV-2 strain 16681 = assay: Tetravalent RT-qPCR assay Protocol A, serotype 2; type: cell-based; settings: Dengue virus, DENV2, 72 h; RT-qPCR serotype 2 16681, Vero cells, day 3
# Description: as §1, §2, §4, §5, §3
# DENV-4 strain H241 = assay: Tetravalent RT-qPCR assay Protocol A, serotype 4 H241; type: cell-based; settings: Dengue virus, DENV4, 72 h; RT-qPCR serotype 4 H241, Vero cells, day 3
# Description: as §1, §2, §4, §5, §3
# [2] = tested on: DENV-2 16681 strain labeled with eGFP; assay: DENV-2 antiviral assay (eGFP fluorescence read-out in Vero cells); type: cell-based, Dengue virus; settings: DENV-2 16681 eGFP, MOI 0.5, 3 days
# Description: The antiviral activity of all the compounds of the invention was tested against the DENV-2 16681 strain which was labeled with enhanced green fluorescent protein (eGPF). The culture medium consists of minimal essential medium supplemented with 2% of heat-inactivated fetal calf serum, 0.04% gentamycin (50 mg/mL) and 2 mM of L-glutamine. Vero cells, obtained from ECACC, were suspended in culture medium and 25 μL was added to 384-well plates (2500 cells/well), which already contain the antiviral compounds. Typically, these plates contain a 5-fold serial dilution of 9 dilution steps of the test compound at 200 times the final concentration in 100% DMSO (200 nL). […] Finally, each plate contains wells which are assigned as virus controls (containing cells and virus in the absence of compound), cell controls (containing cells in the absence of virus and compound) and medium controls (containing medium in the absence of cells, virus and compounds). To the wells assigned as medium control, 25 μL of culture medium was added instead of Vero cells. Once the cells were added to the plates, the plates were incubated for 30 minutes at room temperature to allow the cells to distribute evenly within the wells. Next, the plates were incubated in a fully humidified incubator (37° C., 5% CO2) until the next day. Then, DENV-2 strain 16681, labeled with eGFP, was added at a multiplicity of infection (MOI) of 0.5. Therefore, 15 μL of virus suspension was added to all the wells containing test compound and to the wells assigned as virus control. In parallel, 15 μL of culture medium was added to the medium and cell controls. Next, the plates were incubated for 3 days in a fully humidified incubator (37° C., 5% CO2). At the day of the read out, the eGFP fluorescence was measured using an automated fluorescence microscope at 488 nm (blue laser). Using an in-house LIMS system, inhibition dose response curves for each compound were calculated and the half maximal effective concentration (EC50) was determined. Therefore, the percent inhibition (I) for every test concentration is calculated using the following formula: I=100*([…])/(SVC−SCC); ST, SCC and SVC are the amount of eGFP signal in the test compound, cell control and virus control wells, respectively. The EC50 represents the concentration of a compound at which the virus replication is inhibited with 50%, as measured by a 50% reduction of the eGFP fluorescent intensity compared to the virus control. The EC50 is calculated using linear interpolation (Table 1).
# in vitro [3] = settings: African green monkey
# [4] = Dengue virus, DENV2, Vero, 72 h
structure (smiles),measurement,setting,value
"COc1cc(NC(C(=O)c2c[nH]c3cc(F)c(C)cc23)c2ccc(F)cc2OCCO)cc(S(C)(=O)=O)c1 (single isomer, unassigned) [Compound 7A, 2-(4-fluoro-2-(2-hydroxyethoxy)phenyl)-1-(6-fluoro-5-methyl-1H-indol-3-yl)-2-((3-methoxy-5-(methylsulfonyl)phenyl)amino)ethanone]",CC50 at 3 days,in vitro [1],> 2400 nM
same,EC50,DENV-1 strain TC974#666,1.3 nM
same,EC50,DENV-3 strain H87,20 nM
same,CC50,Vero cells,3100 nM
same,EC50,DENV-2 strain 16681,0.77 nM
same,EC50,DENV-4 strain H241,120 nM
same,EC50,[2],0.54 nM
"COc1cc(NC(C(=O)c2c[nH]c3cc(F)ccc23)c2ccc(F)cc2OCCO)cc(S(C)(=O)=O)c1 (racemic) [Compound 1, 1-(6-fluoro-1H-indol-3-yl)-2-(4-fluoro-2-(2-hydroxyethoxy)phenyl)-2-((3-methoxy-5-(methylsulfonyl)phenyl)amino)ethanone]",EC50,[2]; [4],1.8 nM
same,CC50,in vitro [3],7600 nM
"COc1cc(NC(C(=O)c2c[nH]c3cc(OC)c(C)cc23)c2ccc(F)cc2OCCO)cc(S(C)(=O)=O)c1 (racemic) [Compound 6, 2-(4-fluoro-2-(2-hydroxyethoxy)phenyl)-2-((3-methoxy-5-(methylsulfonyl)phenyl)amino)-1-(6-methoxy-5-methyl-1H-indol-3-yl)ethanone]",EC50,[2]; [4],1.4 nM
same,CC50,in vitro [3],5800 nM
"COc1cc(NC(C(=O)c2c[nH]c3c(C)cc(OC(F)(F)F)cc23)c2ccc(F)cc2OCCO)cc(S(C)(=O)=O)c1 (single isomer, unassigned) [Compound 12A, 2-(4-fluoro-2-(2-hydroxyethoxy)phenyl)-2-((3-methoxy-5-(methylsulfonyl)phenyl)amino)-1-(7-methyl-5-(trifluoromethoxy)-1H-indol-3-yl)ethanone]",CC50 at 3 days,in vitro [1],> 1000 nM
same,EC50,DENV-1 strain TC974#666,0.2 nM
same,EC50,DENV-3 strain H87,3.2 nM
same,CC50,Vero cells,2200 nM
same,EC50,DENV-2 strain 16681,0.075 nM
same,EC50,DENV-4 strain H241,14 nM
same,EC50,[2],0.099 nM
"COc1cc(NC(C(=O)c2c[nH]c3ccc(OC(F)(F)F)cc23)c2ccc(F)cc2OCCO)cc(S(C)(=O)=O)c1 (single isomer, unassigned) [Compound 10B, 2-(4-fluoro-2-(2-hydroxyethoxy)phenyl)-2-((3-methoxy-5-(methylsulfonyl)phenyl)amino)-1-(5-(trifluoromethoxy)-1H-indol-3-yl)ethanone]",CC50 at 3 days,in vitro [1],> 2500 nM
same,EC50,DENV-1 strain TC974#666,0.2 nM
same,EC50,DENV-3 strain H87,2.1 nM
same,CC50,Vero cells,2600 nM
same,EC50,DENV-2 strain 16681,0.057 nM
same,EC50,DENV-4 strain H241,12 nM
same,EC50,[2],0.12 nM
"COc1cc(NC(C(=O)c2c[nH]c3cc(OC)c(OC(F)(F)F)cc23)c2ccc(F)cc2OCCO)cc(S(C)(=O)=O)c1 (racemic) [Compound 11, 2-(4-fluoro-2-(2-hydroxyethoxy)phenyl)-2-((3-methoxy-5-(methyl-sulfonyl)phenyl)amino)-1-(6-methoxy-5-(trifluoromethoxy)-1H-indol-3-yl)ethanone]",EC50,[2]; [4],0.48 nM
same,CC50,in vitro [3],9000 nM
"COc1cc(NC(C(=O)c2c[nH]c3c(C)c(F)ccc23)c2ccc(F)cc2OCCO)cc(S(C)(=O)=O)c1 (racemic) [Compound 3, 2-(4-fluoro-2-(2-hydroxyethoxy)phenyl)-1-(6-fluoro-7-methyl-1H-indol-3-yl)-2-((3-methoxy-5-(methylsulfonyl)phenyl)amino)ethanone]",EC50,[2]; [4],1.2 nM
same,CC50,in vitro [3],5100 nM
"COc1cc(NC(C(=O)c2c[nH]c3c(C)c(Cl)ccc23)c2ccc(F)cc2OCCO)cc(S(C)(=O)=O)c1 (racemic) [Compound 4, 1-(6-chloro-7-methyl-1H-indol-3-yl)-2-(4-fluoro-2-(2-hydroxyethoxy)phenyl)-2-((3-methoxy-5-(methylsulfonyl)phenyl)amino)ethanone]",EC50,[2]; [4],0.37 nM
same,CC50,in vitro [3],3500 nM
"COc1cc(NC(C(=O)c2c[nH]c3cc(Cl)ccc23)c2ccc(F)cc2OCCO)cc(S(C)(=O)=O)c1 (racemic) [Compound 2, 1-(6-chloro-1H-indol-3-yl)-2-(4-fluoro-2-(2-hydroxyethoxy)phenyl)-2-((3-methoxy-5-(methylsulfonyl)phenyl)amino)-ethanone]",EC50,[2]; [4],0.81 nM
same,CC50,in vitro [3],6200 nM
"COc1cc(NC(C(=O)c2c[nH]c3cc(F)c(F)cc23)c2ccc(F)cc2OCCO)cc(S(C)(=O)=O)c1 (racemic) [Compound 5, 1-(5,6-difluoro-1H-indol-3-yl)-2-(4-fluoro-2-(2-hydroxyethoxy)phenyl)-2-((3-methoxy-5-(methylsulfonyl)phenyl)-amino)ethanone]",EC50,[2]; [4],1 nM
same,CC50,in vitro [3],6900 nM
"COc1cc(NC(C(=O)c2c[nH]c3c(F)cc(C)cc23)c2ccc(F)cc2OCCO)cc(S(C)(=O)=O)c1 (racemic) [Compound 8, 2-(4-fluoro-2-(2-hydroxyethoxy)phenyl)-1-(7-fluoro-5-methyl-1H-indol-3-yl)-2-((3-methoxy-5-(methylsulfonyl)phenyl)amino)ethanone]",EC50,[2]; [4],2.3 nM
same,CC50,in vitro [3],6900 nM
"COc1cc(NC(C(=O)c2c[nH]c3c(C)cc(OC(F)(F)F)cc23)c2ccc(F)cc2OCCO)cc(S(C)(=O)=O)c1 (racemic) [Compound 12, 2-(4-fluoro-2-(2-hydroxyethoxy)phenyl)-2-((3-methoxy-5-(methylsulfonyl)phenyl)amino)-1-(7-methyl-5-(trifluoromethoxy)-1H-indol-3-yl)ethanone]",EC50,[2]; [4],0.22 nM
same,CC50,in vitro [3],3700 nM
